# Data taken from patent US6858618B2, “Use of rosuvastatin (zd-4522) in the treatment of heterozygous familial hypercholesterolemia” (AstraZeneca AB, priority 2000, dated 2005).
# Marks after values point to notes of the source that are not given here.
# What was measured:
# [1] = system: subjects with heterozygous familial hypercholesterolemia; experiment: 24-week randomised double-blind Phase III trial of ZD4522 versus atorvastatin: efficacy (lipids, guideline targets, CRP); assay type: in vivo, human; conditions: for mean % reduction in LDL-C / Percentage subjects reaching EAS target for LDL-C levels at Week 18, high-risk / Percentage subjects reaching EAS target for LDL-C levels at Week 18, overall / Percentage subjects reaching NCEP target for LDL-C levels at Week 18, high-risk / Percentage subjects reaching NCEP target for LDL-C levels at Week 18, overall / Percentage change from baseline to Week 18 in inflammatory marker CRP / Lsmean of percentage change from baseline to Week 18 in ApoA-I / Lsmean of percentage change from baseline to Week 18 in ApoB / Lsmean of percentage change from baseline to Week 18 in ApoB/ApoA-I ratio / Lsmean of percentage change from baseline to Week 18 in HDL-C / Lsmean of percentage change from baseline to Week 18 in LDL-C / Lsmean of percentage change from baseline to Week 18 in LDL-C/HDL-C ratio / Lsmean of percentage change from baseline to Week 18 in Non-HDL-C/HDL-C ratio / Lsmean of percentage change from baseline to Week 18 in TC / Lsmean of percentage change from baseline to Week 18 in TC/HDL-C ratio / Lsmean of percentage change from baseline to Week 18 in TG: HeFH subjects; for mean % reduction in LDL-C / Percentage subjects reaching EAS target for LDL-C levels at Week 18, high-risk / Percentage subjects reaching EAS target for LDL-C levels at Week 18, overall / Percentage subjects reaching NCEP target for LDL-C levels at Week 18, high-risk / Percentage subjects reaching NCEP target for LDL-C levels at Week 18, overall / Percentage change from baseline to Week 18 in inflammatory marker CRP: 20/40/80 mg; for mean % reduction in LDL-C: primary efficacy analysis; for Percentage subjects reaching EAS target for LDL-C levels at Week 18, high-risk / Percentage subjects reaching EAS target for LDL-C levels at Week 18, overall / Percentage subjects reaching NCEP target for LDL-C levels at Week 18, high-risk / Percentage subjects reaching NCEP target for LDL-C levels at Week 18, overall / Lsmean of percentage change from baseline to Week 18 in ApoA-I / Lsmean of percentage change from baseline to Week 18 in ApoB / Lsmean of percentage change from baseline to Week 18 in ApoB/ApoA-I ratio / Lsmean of percentage change from baseline to Week 18 in HDL-C / Lsmean of percentage change from baseline to Week 18 in LDL-C / Lsmean of percentage change from baseline to Week 18 in LDL-C/HDL-C ratio / Lsmean of percentage change from baseline to Week 18 in Non-HDL-C/HDL-C ratio / Lsmean of percentage change from baseline to Week 18 in TC / Lsmean of percentage change from baseline to Week 18 in TC/HDL-C ratio / Lsmean of percentage change from baseline to Week 18 in TG: Week 18, LOCF on ITT population; for Percentage change from baseline to Week 18 in inflammatory marker CRP: Week 18, observed data; for Lsmean of percentage change from baseline to Week 18 in ApoA-I / Lsmean of percentage change from baseline to Week 18 in ApoB / Lsmean of percentage change from baseline to Week 18 in ApoB/ApoA-I ratio / Lsmean of percentage change from baseline to Week 18 in HDL-C / Lsmean of percentage change from baseline to Week 18 in LDL-C / Lsmean of percentage change from baseline to Week 18 in LDL-C/HDL-C ratio / Lsmean of percentage change from baseline to Week 18 in Non-HDL-C/HDL-C ratio / Lsmean of percentage change from baseline to Week 18 in TC / Lsmean of percentage change from baseline to Week 18 in TC/HDL-C ratio / Lsmean of percentage change from baseline to Week 18 in TG: oral once daily, forced titration 20/40/80 mg
# Procedure: We have conducted a Phase III trial designed to assess the efficacy of ZD4522 in subjects with HeFH. The dose-response of ZD4522 was compared with atorvastatin using the percentage change from baseline in LDL-C levels as the primary end-point. Doses of ZD4522 up to 80 mg per day were use& Atorvastatin was chosen as the comparator statin in this trial because it has the best LDL-C lowering activity of the currently marketed statins.
# The primary objective was to compare the efficacy of ZD4522 (titrated to 80 mg) with that of atorvastatin (titrated to 80 mg) in reducing low-density lipoprotein cholesterol (LDL-C) levels in subjects with heterozygous familial hypercholesterolemia (HeFH) after 18 weeks of treatment.
# Population: A total of 265 (200 in the ZD4522 group, 65 in the atorvastatin group) randomised to and evaluable subjects with documented heterozygous F, derived from approximately 1240 recruited subjects, were required to enable 80% power in detecting a 6% difference between groups in the percentage change from baseline in LDL-C levels.
# Key exclusion criteria: Various concomitant illnesses, including active liver disease or hepatic dysfunction (defined by an alanine aminotransferase [ALT], aspartate amninotransferase [AST] or bilirubin concentration […] of normal [ULN]), active arterial disease, history of malignancy (unless basal or squamous cell skin carcinoma), uncontrolled hypertension, and uncontrolled hypothyroidism; serum creatine kinase (CK) concentration >3×ULN; usage of concomitant medications known to affect the lipid profile or present a potential safety concern (for example, through drug interaction).
# Efficacy: Fasting LDL-C, total cholesterol (TC), high-density lipoprotein cholesterol (HDL-C), and TG were assessed at, Weeks 0, 2, 6, 12, and 18; fasting apolipoprotein (ApoB) and apolipoprotein A-I (ApoA-I) were assessed at Weeks 0 and 18; C-reactive protein (CRP) was assessed at Weeks 0 and 18. Dietary compliance throughout the trial was assessed and evaluated.
# The primary end-point was the percentage change from baseline to Week 18 in LDL-C levels, and was analysed using analysis of variance (ANOVA) on last observations carried forward (LOCF) from an intention-to-treat (ITT) population; the initial ANOVA model included terms for treatment, center, and center-by-treatment interaction. Additional analyses using observed data from ITT and per-protocol (PP) populations were used to confirm the robustness of the Main ITT analysis.
# Percentage changes from baseline in the other lipids and lipoproteins were secondary end-points of the trial and were analysed using ANOVA. The other secondary end-points of the percentage of subjects in the ITT population who achieved targets for LDL-C levels specified by the National Cholesterol Education Program (NCEP) or the European Atherosclerosis Society (EAS), and the percentage change from baseline in the inflammatory marker CRP, were summarised only.
# [2] = system: subjects with heterozygous familial hypercholesterolemia; experiment: 24-week randomised double-blind Phase III trial of ZD4522 versus atorvastatin: safety assessments; conditions: HeFH subjects, 20/40/80 mg, safety population
# Procedure: A further secondary objective was to determine the safety of ZD4522.
# Design: A 24-week, randomised, double-blind, 2-group, parallel-group, forced-titration, multicentre, multinational trial. After a 6-week dietary lead-in period, subjects were randomised to treatment with either ZD4522 20 mg, or atorvastatin 20 mg for 6 weeks. Following this initial treatment period, all subjects with an LDL-C level >1.3 mmol/L (50 mg/dL) were force-titrated at 6-week intervals as follows; from ZD4522 20 to 40 to 80 mg, and from atorvastatin 20 to 40 to 80 mg. The maximum titrated dose of either treatment after 18 weeks was 80 mg.
# Dosage: Subjects took oral doses of trial treatment once daily, approximately 3 hours after the evening meal. Doses of treatments were as follows; ZD4522 20, 40, and 80 mg, atorvastatin 20, 40, and 80 mg. Subjects had their doses titrated up at 6-week intervals in a sequential manner, if appropriate.
# Safety: Standard safety assessments included adverse event pot clinical laboratory data (hepatic biochemistry, CK, renal biochemistry, haematology, urinalysis), vital signs, electrocardiograms (ECGs) and physical examination.
SMILES,"mean % reduction in LDL-C ([1]; 18 weeks, LOCF) [%]","Percentage subjects reaching EAS target for LDL-C levels at Week 18, high-risk [1] [%]","Percentage subjects reaching EAS target for LDL-C levels at Week 18, overall [1] [%]","Percentage subjects reaching NCEP target for LDL-C levels at Week 18, high-risk [1] [%]","Percentage subjects reaching NCEP target for LDL-C levels at Week 18, overall [1] [%]",Percentage change from baseline to Week 18 in inflammatory marker CRP [1] [%],Lsmean of percentage change from baseline to Week 18 in ApoA-I [1],Lsmean of percentage change from baseline to Week 18 in ApoB [1],Lsmean of percentage change from baseline to Week 18 in ApoB/ApoA-I ratio [1],Lsmean of percentage change from baseline to Week 18 in HDL-C [1],Lsmean of percentage change from baseline to Week 18 in LDL-C [1],Lsmean of percentage change from baseline to Week 18 in LDL-C/HDL-C ratio [1],Lsmean of percentage change from baseline to Week 18 in Non-HDL-C/HDL-C ratio [1],Lsmean of percentage change from baseline to Week 18 in TC [1],Lsmean of percentage change from baseline to Week 18 in TC/HDL-C ratio [1],Lsmean of percentage change from baseline to Week 18 in TG [1],other results
"CC(C)c1nc(N(C)S(C)(=O)=O)nc(-c2ccc(F)cc2)c1/C=C/[C@@H](O)C[C@@H](O)CC(=O)O [ZD4522, (E)-7-[4-(4-fluorophenyl)-6-isopropyl-2-[methyl(methylsulfonyl)amino]pyrimidin-5-yl](3R,5S)-3,5-dihydroxyhept-6-enoic acid]",57.88,47.5,47.4,23.9,60.5,25.21,5.86^b %,−50.21^b %,−52.03^b %,12.36^b %,−57.88^b %,−61.69^b %,−59.40^b %,−46.35^b %,−51.44^b %,−27.82^ns %,"difference between treatments in % reduction in LDL-C (versus atorvastatin 20/40/80 mg) ([1]; 18 weeks, LOCF, ZD4522 20/40/80 mg versus atorvastatin 20/40/80 mg): > 6%"
"CC(C)c1c(C(=O)Nc2ccccc2)c(-c2ccccc2)c(-c2ccc(F)cc2)n1CC[C@@H](O)C[C@@H](O)CC(=O)O [Atorvastatin, atorvastatin]",50.41,24.2,24.1,3.2,46.0,31.28,−2.33^b %,−44.44^b %,−42.46^b %,2.91^b %,−50.41^b %,−51.16^b %,−49.86^b %,−42.13^b %,−43.17^b %,−31.60^ns %,"clinically significant elevations (≧10×ULN) in CK [2]: no clinically significant elevations; incidence of clinically significant elevations in ALT (≧3×ULN) [2]: 1.1%; number of patients with clinically significant elevations in ALT (≧3×ULN) [2]: 2 patients; overall incidence of AEs (including treatment-related AEs, AEs leading to withdrawals and SAEs) [2]: 65.8%"
